Measured values: patent publication US20090136578A1, “Pharmaceutical Composition Comprising Perindopril or Its Salts” (LEK Pharmaceutical d.d., priority 2005, published 2009)

Legend:
Assay type in all cases: physicochemical
[1] = Stress stability of binary mixture perindopril erbumine:Avicel 1:2, HPLC degradation products; settings: binary mixture with Avicel 1:2
Experimental: (§1) For the comparative tests, samples of perindopril erbumine with different particle size were mixed with some common pharmaceutically acceptable excipients in binary or ternary mixtures. Pharmaceutical compositions, particularly tablets, with perindopril erbumine having different particle size were prepared as well. Binary and ternary mixtures and tablets were exposed to the stress condition, e.g. 60° C. for 14 days or 40° C./75% relative humidity for 1 month. Degradation products of perindopril were determined using HPLC method as described in European Pharmacopea 5.0 (January 2005, monograph for Perindopril tert-butylamine—pages 2210-2212).
(§2) Samples of perindopril erbumine having large or small particles were mixed with microcrystalline cellulose (Avicel) into the binary mixtures having a ratio perindopril erbumine:Avicel=1:2. Binary mixtures were closed into vials and exposed to the stress condition of 60° C. for 14 days. Degradation products (impurities B and F) of perindopril were determined using HPLC method as described in European Pharmacopea 5.0 (p. 2210-2212).

[2] = Stress stability of binary mixture perindopril erbumine:anhydrous lactose 1:2, HPLC degradation products; settings: binary mixture with anhydrous lactose 1:2
Experimental: as §1
as §2, with “anhydrous lactose” for “microcrystalline cellulose (Avicel)”, “erbumine:anhydrous lactose=1:2.” for “erbumine:Avicel=1:2.”

[3] = Stress stability of binary mixture perindopril erbumine:Aerosil 15:1, HPLC degradation products; settings: binary mixture with Aerosil 15:1
Experimental: as §1, with “month.” for “month. Degradation products of perindopril were determined using HPLC method as described in European Pharmacopea 5.0 (January 2005, monograph for Perindopril tert-butylamine—pages 2210-2212).”
Samples of perindopril erbumine having large or small particles were mixed with colloidal anhydrous silicon dioxide (Aerosil) into the binary mixtures having a ratio perindopril erbumine:Aerosil=15:1. Binary mixtures were closed into vials and exposed to the stress condition of 60° C. for 14 days.

[4] = Stress stability of ternary mixture perindopril erbumine:Avicel:Syloid 2:10:1, HPLC degradation products; settings: ternary mixture with Avicel and Syloid 2:10:1
Experimental: as §1, with “month.” for “month. Degradation products of perindopril were determined using HPLC method as described in European Pharmacopea 5.0 (January 2005, monograph for Perindopril tert-butylamine—pages 2210-2212).”
(§3) Samples of perindopril erbumine having large or small particles were mixed with microcrystalline cellulose (Avicel) and micronized silicon dioxide (Syloid) into the ternary mixtures having ratio perindopril erbumine:Avicel:Syloid=2:10:1. Ternary mixtures were exposed to the stress condition of 40° C./75% relative humidity for 1 month.

[5] = Stress stability of ternary mixture perindopril erbumine:anhydrous lactose:Syloid 2:10:1, HPLC degradation products; settings: ternary mixture with anhydrous lactose and Syloid 2:10:1
Experimental: as §1, with “month.” for “month. Degradation products of perindopril were determined using HPLC method as described in European Pharmacopea 5.0 (January 2005, monograph for Perindopril tert-butylamine—pages 2210-2212).”
as §3, with “anhydrous lactose” for “microcrystalline cellulose (Avicel)”, “erbumine:anhydrous lactose:Syloid=2:10:1.” for “erbumine:Avicel:Syloid=2:10:1.”

[6] = Stress stability of tablets of Example 6, HPLC degradation products
Experimental: as §1, with “month.” for “month. Degradation products of perindopril were determined using HPLC method as described in European Pharmacopea 5.0 (January 2005, monograph for Perindopril tert-butylamine—pages 2210-2212).”
Samples of perindopril erbumine having large or small particles were mixed with selected pharmaceutical excipients in stated ratio:
Mixture was homogenized and pressed into the tablets. The amount of the perindopril erbumine in the tablets was defined by the mass of the tablet. Tablet could contain 2, 4 or 8 mg of perindopril erbumine.
Tablets were exposed to the stress condition of 60° C. for 14 days and 40° C./75% relative humidity for 1 month.

[7] = Comparative stress tests of perindopril erbumine of different particle size with excipients; settings: in comparison to perindopril erbumine having small particles; regardless of excipients or testing conditions
Experimental: During the development of the stable pharmaceutical composition of perindopril erbumine comparative tests were performed to investigate effects of various pharmaceutically acceptable excipients e.g. fillers, disintegrants and glidants, and different particle size of perindopril erbumine on the stability of perindopril erbumine.
as §1, with “month.” for “month. Degradation products of perindopril were determined using HPLC method as described in European Pharmacopea 5.0 (January 2005, monograph for Perindopril tert-butylamine—pages 2210-2212).”

Row | SMILES | impurity B ([1]; 60° C., 14 days) [%] | impurity F ([1]; 60° C., 14 days) [%] | sum of impurities ([1]; 60° C., 14 days) [%] | impurity B ([1]; beginning) [%] | impurity F ([1]; beginning) [%] | sum of impurities ([1]; beginning) [%] | impurity B ([2]; 60° C., 14 days) [%] | impurity F ([2]; 60° C., 14 days) [%] | sum of impurities ([2]; 60° C., 14 days) [%] | impurity B ([2]; beginning) [%] | impurity F ([2]; beginning) [%] | sum of impurities ([2]; beginning) [%] | impurity B ([3]; 60° C., 14 days) [%] | impurity F ([3]; 60° C., 14 days) [%] | sum of impurities ([3]; 60° C., 14 days) [%] | impurity B ([3]; beginning) [%] | impurity F ([3]; beginning) [%] | sum of impurities ([3]; beginning) [%] | impurity B ([4]; 40° C./75% RH, 1 month) [%] | impurity F ([4]; 40° C./75% RH, 1 month) [%] | other results
1 | CCC[C@H](N[C@@H](C)C(=O)N1[C@H](C(=O)O)C[C@@H]2CCCC[C@@H]21)C(=O)OCC [perindopril erbumine - large particles, perindopril erbumine] | <0.05 | 0.07 | 0.07 | <0.05 | <0.05 | <0.05 | <0.05 | 0.13 | 0.13 | <0.05 | <0.05 | <0.05 | <0.05 | 0.08 | 0.08 | <0.05 | <0.05 | <0.05 | 0.05 | 0.18 | sum of impurities ([4]; 40° C./75% RH, 1 month): 0.29%; impurity B ([4]; beginning): <0.05%; impurity F ([4]; beginning): <0.05%; sum of impurities ([4]; beginning): 0.11%; impurity B ([5]; 40° C./75% RH, 1 month): 1.09%; impurity F ([5]; 40° C./75% RH, 1 month): 0.70%; sum of impurities ([5]; 40° C./75% RH, 1 month): 1.92%; impurity B ([5]; beginning): <0.05%; impurity F ([5]; beginning): <0.05%; sum of impurities ([5]; beginning): 0.10%; impurity B ([6]; 40° C./75% RH, 1 month): 0.13%; impurity F ([6]; 40° C./75% RH, 1 month): 0.28%; sum of impurities ([6]; 40° C./75% RH, 1 month): 0.41%; impurity B ([6]; 60° C., 14 days): 0.56%; impurity F ([6]; 60° C., 14 days): 0.63%; sum of impurities ([6]; 60° C., 14 days): 1.40%; impurity B ([6]; beginning): <0.05%; impurity F ([6]; beginning): 0.07%; sum of impurities ([6]; beginning): 0.07%; degradation of perindopril erbumine [7]: smaller
2 | CCC[C@H](N[C@@H](C)C(=O)N1[C@H](C(=O)O)C[C@@H]2CCCC[C@@H]21)C(=O)OCC [perindopril erbumine - small particles, perindopril erbumine] | <0.05 | 0.74 | 0.81 | <0.05 | <0.05 | <0.05 | <0.05 | 0.77 | 0.88 | <0.05 | <0.05 | <0.05 | <0.05 | 0.80 | 0.80 | <0.05 | <0.05 | <0.05 | 0.14 | 0.17 | sum of impurities ([4]; 40° C./75% RH, 1 month): 0.36%; impurity B ([4]; beginning): <0.05%; impurity F ([4]; beginning): <0.05%; sum of impurities ([4]; beginning): 0.11%; impurity B ([5]; 40° C./75% RH, 1 month): 1.24%; impurity F ([5]; 40° C./75% RH, 1 month): 1.35%; sum of impurities ([5]; 40° C./75% RH, 1 month): 2.75%; impurity B ([5]; beginning): <0.05%; impurity F ([5]; beginning): <0.05%; sum of impurities ([5]; beginning): 0.10%; impurity B ([6]; 40° C./75% RH, 1 month): 0.09%; impurity F ([6]; 40° C./75% RH, 1 month): 0.51%; sum of impurities ([6]; 40° C./75% RH, 1 month): 0.65%; impurity B ([6]; 60° C., 14 days): 0.27%; impurity F ([6]; 60° C., 14 days): 0.96%; sum of impurities ([6]; 60° C., 14 days): 1.79%; impurity B ([6]; beginning): <0.05%; impurity F ([6]; beginning): <0.05%; sum of impurities ([6]; beginning): 0.05%
